Reference: ChEMBL document CHEMBL1201862, “PubChem BioAssay data set” (2004)
Activity calls are given as the source filed them.

Columns and labels:
cells = type: functional
[1] = target: T1, Polyadenylate-binding protein 1 (Homo sapiens, UniProt P11940); assay: MLLE binding blockers, Cy5 peptide tracer – biochemical, fluorescence polarization, Cy5-PAM2 peptide, secondary, miRNA deadenylation inhibitor project, dose response (AID 602260); type: functional; settings: read-out: IC50_Mean
[2] = target: T1, Polyadenylate-binding protein 1; assay: MLLE domain peptide-binding blockers, IC50 – biochemical, fluorescence polarization, FITC-PAM2 peptide, dose response (AID 602259); type: functional; settings: read-out: IC50_Mean
[3] = reduction of Shn3 3'UTR-driven luciferase in osteoblasts – cell-based, Clone20 osteoblasts, firefly luciferase, cherry-picked, dose response (AID 624132); type: functional;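 also: firefly luciferase luminescence from reporter carrying the Shn3 3'UTR in osteoblasts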
[4] = loss of viability in HepG2 cells – cell-based, CellTiter-Glo, cherry-picked, cytotoxicity control for Shn3 inhibitor project, dose response (AID 624134); type: functional
[5] = non-specific 3'UTR reporter inhibition in Clone20-Shn3RL – cell-based, Renilla luciferase, cherry-picked, counter-screen for Shn3 inhibitor project, dose response (AID 624133); type: functional
[6] = target: FAD-linked sulfhydryl oxidase ALR (Homo sapiens, UniProt P55789); assay: ALR-catalysed DTT oxidation blockers – biochemical, H2O2 detection, luminescence, cherry-pick, dose response (AID 493248)
[7] = target: T2, High affinity choline transporter 1 (Homo sapiens, UniProt Q9GZV3); assay: human choline transporter blockers, potency – cell-based, 5-point CRC, membrane potential dye, dose response (AID 504840); type: functional
T2 sequence (Q9GZV3 whole entry): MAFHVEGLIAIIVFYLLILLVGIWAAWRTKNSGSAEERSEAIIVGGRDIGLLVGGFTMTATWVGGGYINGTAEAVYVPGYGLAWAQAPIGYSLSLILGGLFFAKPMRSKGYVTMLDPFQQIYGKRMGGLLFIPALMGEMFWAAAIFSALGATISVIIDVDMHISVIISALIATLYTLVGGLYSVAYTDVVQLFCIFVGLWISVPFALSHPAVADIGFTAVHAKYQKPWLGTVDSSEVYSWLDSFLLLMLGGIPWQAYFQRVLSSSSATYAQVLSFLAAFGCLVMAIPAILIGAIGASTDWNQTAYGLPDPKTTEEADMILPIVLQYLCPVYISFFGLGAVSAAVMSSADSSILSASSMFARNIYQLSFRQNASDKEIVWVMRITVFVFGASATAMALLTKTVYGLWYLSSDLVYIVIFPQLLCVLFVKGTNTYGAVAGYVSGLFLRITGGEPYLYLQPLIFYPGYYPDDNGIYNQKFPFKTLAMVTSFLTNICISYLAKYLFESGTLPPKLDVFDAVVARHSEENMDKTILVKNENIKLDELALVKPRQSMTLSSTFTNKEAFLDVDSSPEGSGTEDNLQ

[8] = target: T3, Corticotropin-releasing factor receptor 2/Corticotropin-releasing factor-binding protein (Homo sapiens, UniProt P24387+Q13324); assay: activators of CRF receptor 2 with binding protein – uHTS hits, confirmation (AID 602473); type: functional; settings: read-out: EC50_Mean
T3 sequence (Q13324 whole entry): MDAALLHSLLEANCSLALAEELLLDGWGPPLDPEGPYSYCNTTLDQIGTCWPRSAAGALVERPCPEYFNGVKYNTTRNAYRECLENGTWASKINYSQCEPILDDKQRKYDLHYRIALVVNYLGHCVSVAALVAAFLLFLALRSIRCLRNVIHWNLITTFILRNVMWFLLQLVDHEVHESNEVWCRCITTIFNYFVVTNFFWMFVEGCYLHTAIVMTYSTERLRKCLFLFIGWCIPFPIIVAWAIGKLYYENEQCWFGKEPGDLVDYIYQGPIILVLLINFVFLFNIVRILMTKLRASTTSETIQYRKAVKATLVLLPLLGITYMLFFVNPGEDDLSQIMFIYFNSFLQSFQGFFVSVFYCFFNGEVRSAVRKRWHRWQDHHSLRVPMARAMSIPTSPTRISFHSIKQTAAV
T3 sequence (P24387 whole entry): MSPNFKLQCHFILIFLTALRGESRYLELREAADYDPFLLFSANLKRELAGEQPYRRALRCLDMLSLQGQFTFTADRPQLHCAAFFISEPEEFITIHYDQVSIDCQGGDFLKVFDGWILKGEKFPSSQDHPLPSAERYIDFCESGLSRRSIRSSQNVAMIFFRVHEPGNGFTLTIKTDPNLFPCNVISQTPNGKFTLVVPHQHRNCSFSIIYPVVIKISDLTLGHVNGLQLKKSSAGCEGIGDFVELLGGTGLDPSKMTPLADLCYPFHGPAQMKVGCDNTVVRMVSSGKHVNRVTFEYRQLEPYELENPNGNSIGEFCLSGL

[9] = target: T3, Corticotropin-releasing factor receptor 2/Corticotropin-releasing factor-binding protein; assay: Dose Response confirmation of uHTS hits for small molecule antagonists of the CRF-binding protein and CRF-R2 receptor complex.; type: functional; settings: read-out: IC50_Mean
[10] = target: T4, Heat shock factor protein 1 (Mus musculus, UniProt P38532); assay: enhancement of HSF1-driven luciferase signal – cell-based, NIH3T3, luminescence, dose retest, confirmation (AID 435004); type: functional;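 also: stress induced by proteasome inhibitor MG132 added 30 min after compound; luciferase reporter driven by HSF1 response element in NIH3T3 cells; actives raise luminescence as potentiators of the MG132 stress response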
T4 sequence (P38532 whole entry): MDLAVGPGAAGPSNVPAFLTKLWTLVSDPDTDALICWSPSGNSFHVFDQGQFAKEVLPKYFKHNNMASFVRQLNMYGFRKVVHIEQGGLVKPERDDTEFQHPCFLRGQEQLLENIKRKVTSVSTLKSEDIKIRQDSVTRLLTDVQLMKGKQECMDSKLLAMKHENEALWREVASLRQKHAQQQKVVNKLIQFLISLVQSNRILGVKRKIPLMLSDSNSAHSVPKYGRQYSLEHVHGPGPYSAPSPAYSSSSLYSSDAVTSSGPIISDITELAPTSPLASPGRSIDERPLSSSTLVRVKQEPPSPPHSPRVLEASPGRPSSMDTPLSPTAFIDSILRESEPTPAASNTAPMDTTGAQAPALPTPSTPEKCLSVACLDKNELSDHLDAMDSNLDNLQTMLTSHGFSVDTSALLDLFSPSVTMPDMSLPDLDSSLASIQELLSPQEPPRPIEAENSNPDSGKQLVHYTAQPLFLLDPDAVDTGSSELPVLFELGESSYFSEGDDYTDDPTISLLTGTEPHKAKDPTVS

[11] = viability of uninfected HEp-2 cells – cell-based, HTS, cytotoxicity control for RSV inhibitor project, dose response (AID 2410); type: functional; settings: human respiratory syncytial virus
[12] = target: T4, Heat shock factor protein 1; assay: decrease of HSF1-responsive luciferase luminescence – cell-based, NIH3T3, dose retest, confirmation (AID 2382); type: functional;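 also: NIH3T3 fibroblasts with HSF1-driven luciferase reporter stressed by proteasome inhibitor MG132; luminescence from HSF1-driven luciferase expression after 8 hours of MG132 stress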
[13] = NIH3T3 cell viability loss – ATP luminescence, mouse fibroblasts, counter-screen, dose response (AID 2010); type: functional, cell-based;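 also: cells exposed to compound for about 90 hours before reading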
[14] = Trypanosoma cruzi growth suppression in host cells – NIH3T3 host cells, beta-gal luminescence, confirmation (AID 2044); type: functional, cell-based;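 also: intracellular parasites grown in NIH/3T3 mouse fibroblasts as host cells; luminescent beta-galactosidase reporter signal from transgenic T. cruzi replicating inside host cells; inhibitors lower the luminescence signal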
[15] = target: T5, RNA-binding protein pos-1 (Caenorhabditis elegans, UniProt G5EF15); assay: disruptors of C. elegans POS-1 RNA interaction – biochemical, fluorescence polarization, dose response (AID 1964);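 also: purified POS-1 fused to maltose binding protein made in E. coli; potency of compounds blocking POS-1 binding to fluorescent RNA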
T5 sequence (G5EF15 whole entry): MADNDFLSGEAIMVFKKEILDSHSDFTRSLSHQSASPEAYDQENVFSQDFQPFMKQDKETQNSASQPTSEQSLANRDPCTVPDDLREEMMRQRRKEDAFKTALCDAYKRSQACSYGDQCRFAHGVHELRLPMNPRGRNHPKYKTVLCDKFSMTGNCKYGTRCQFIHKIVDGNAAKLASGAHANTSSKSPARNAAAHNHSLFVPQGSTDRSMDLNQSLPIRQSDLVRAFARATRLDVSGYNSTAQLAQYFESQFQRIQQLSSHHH

[16] = target: T6, Zinc finger protein mex-5 (Caenorhabditis elegans, UniProt Q9XUB2); assay: potency of MEX-5 RNA-binding blockers – biochemical, C. elegans, fluorescence polarization, dose response (AID 1960)
T6 sequence (Q9XUB2 whole entry): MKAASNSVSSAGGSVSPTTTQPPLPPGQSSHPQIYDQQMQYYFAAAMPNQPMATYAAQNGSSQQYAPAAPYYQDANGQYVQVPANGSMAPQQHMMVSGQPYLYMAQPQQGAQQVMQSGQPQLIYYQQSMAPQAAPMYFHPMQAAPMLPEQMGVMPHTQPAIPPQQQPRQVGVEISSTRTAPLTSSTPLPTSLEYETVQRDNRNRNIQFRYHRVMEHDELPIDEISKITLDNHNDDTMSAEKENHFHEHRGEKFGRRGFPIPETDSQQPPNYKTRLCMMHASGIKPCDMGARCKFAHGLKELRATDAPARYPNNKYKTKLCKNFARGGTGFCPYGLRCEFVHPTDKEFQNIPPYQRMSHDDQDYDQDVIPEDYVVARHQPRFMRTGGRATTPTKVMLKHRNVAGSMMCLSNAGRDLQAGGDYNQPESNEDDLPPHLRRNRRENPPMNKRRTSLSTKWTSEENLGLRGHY

[17] = blockers of HIV-1 envelope-mediated cell-cell fusion – cherry-pick, dose response (AID 652057); type: functional, cell-based

T1 sequence (P11940 whole entry, the tested form may be a part): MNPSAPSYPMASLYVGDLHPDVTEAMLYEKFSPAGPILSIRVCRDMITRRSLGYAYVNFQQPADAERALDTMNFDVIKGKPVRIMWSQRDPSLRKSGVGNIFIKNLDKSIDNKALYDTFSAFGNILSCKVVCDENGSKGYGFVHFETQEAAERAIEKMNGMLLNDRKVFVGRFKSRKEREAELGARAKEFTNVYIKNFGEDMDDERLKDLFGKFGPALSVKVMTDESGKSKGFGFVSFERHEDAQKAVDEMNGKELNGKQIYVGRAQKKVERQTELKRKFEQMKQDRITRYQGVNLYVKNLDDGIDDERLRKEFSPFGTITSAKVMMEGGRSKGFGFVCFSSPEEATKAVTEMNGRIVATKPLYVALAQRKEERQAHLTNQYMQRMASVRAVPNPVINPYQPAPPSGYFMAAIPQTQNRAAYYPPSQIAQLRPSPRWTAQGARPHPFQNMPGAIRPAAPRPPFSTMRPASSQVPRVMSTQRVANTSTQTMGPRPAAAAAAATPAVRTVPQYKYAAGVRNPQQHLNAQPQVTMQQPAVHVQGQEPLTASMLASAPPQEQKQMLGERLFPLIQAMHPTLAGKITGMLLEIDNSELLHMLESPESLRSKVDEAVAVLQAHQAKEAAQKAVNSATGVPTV
Chain of FAD-linked sulfhydryl oxidase ALR (P55789 whole entry): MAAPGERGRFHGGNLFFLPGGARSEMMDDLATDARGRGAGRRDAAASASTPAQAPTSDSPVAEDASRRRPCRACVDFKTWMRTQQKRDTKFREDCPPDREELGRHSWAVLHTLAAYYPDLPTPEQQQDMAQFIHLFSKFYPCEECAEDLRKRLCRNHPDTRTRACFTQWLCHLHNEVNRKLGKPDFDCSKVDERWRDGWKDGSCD

CSc1ccc(CNc2ncc(-c3cccc([N+](=O)[O-])c3)n2C)cc1
IC50 (cells): 21.8 µM (active)

O=C(CCc1ccccc1)NC1C2CC3CC(C2)CC1C3 (stereo not given)
IC50 (cells): 18.6 µM (active)

OC1(c2ccc(Br)cc2)C[N+](c2ccccc2)=C2SCCN21 (stereo not given)
IC50 [1]: > 66 µM (inactive) | IC50 [2]: > 66 µM (inactive)

Cc1ccc(S(=O)(=O)Nc2ccc3ncccc3c2)cc1
AC50 [3]: 2.2 µM (active) | AC50 [4]: 45.9 µM (active) | AC50 [5]: 29.3 µM (active)

O=C(O)c1ccc(Sc2nnc(-c3cccc(Br)c3)o2)c([N+](=O)[O-])c1
AC50 [6]: 0.044 µM (active)

CC1CCCCC1NC(=O)c1cccc(N2C(=O)C3C4C=CC(C4)C3C2=O)c1 (stereo not given)
IC50 [7]: 14.5 µM (active)

O=C(NC(=S)Nc1ccccc1O)c1ccccc1Cl
IC50 [1]: > 66 µM (inactive) | IC50 [2]: > 66 µM (inactive)

CC(C)(C)c1nnc(N=C(S)Nc2ccccc2)s1
IC50 [1]: > 66 µM (inactive) | IC50 [2]: > 66 µM (inactive)

COc1ccc(C2=NS(=O)(=O)N(C)C(C(=O)N3CCc4ccccc4C3)=C2)cc1OC
AC50 [3]: 4.99 µM (active) | AC50 [4]: 69.3 µM (active) | AC50 [5]: 4.43 µM (active)

Cc1ccc(C(=O)N2c3ccccc3N(Cc3ccccc3)C(=O)C2(C)C)cc1
AC50 [3]: 6.92 µM (active) | AC50 [4]: > 70 µM (inactive) | EC50 [8]: > 53 µM (inactive) | AC50 [5]: 4.11 µM (active) | IC50 [9]: 5.66 µM (active)

O=C(O)c1cnn(-c2nc(-c3cccc([N+](=O)[O-])c3)cs2)c1C(F)(F)F
IC50 [7]: 11 µM (active) | EC50 [10]: > 260 µM (inactive) | CC50 [11]: 37.9 µM (active)

CC(c1ccccc1)N1CCc2[nH]c(=S)[nH]c(=O)c2C1 (stereo not given)
IC50 [1]: > 66 µM (inactive) | IC50 [2]: > 66 µM (inactive)

NC(=O)COC(=O)c1ccc(Cl)c(S(=O)(=O)N2CCN(c3ccc(F)cc3)CC2)c1
IC50 [7]: 13.8 µM (active)

NC(=NO)c1ccccc1N1CCC(Cc2ccccc2)CC1
AC50 [6]: 27.4 µM (active)

CC1CCN(Cc2ccc(-c3nnn(CC(=O)Nc4ccccc4Cl)n3)cc2)CC1
AC50 [3]: 1.77 µM (active) | AC50 [4]: > 70 µM (inactive) | AC50 [5]: 3.25 µM (active)

Cc1cccc(NC2SC(=O)NC2=O)c1 (stereo not given)
IC50 [1]: > 66 µM (inactive) | IC50 [2]: > 66 µM (inactive)

CCOc1ccc(NC(=O)COC(=O)C2(C)CC2(Cl)Cl)c([N+](=O)[O-])c1 (stereo not given)
IC50 (cells): 38.4 µM (active) | EC50 [12]: > 195 µM (not active)

CCN(CC)CC(=O)Nc1ccc2c(c1)Nc1ccccc1CC2
AC50 [6]: 0.221 µM (active)

CCOC(=O)c1c(-c2ccccc2)csc1NC(=O)C1CCCO1 (stereo not given)
IC50 [1]: > 66 µM (inactive) | IC50 [2]: > 66 µM (inactive)

CN(c1cccc(NC(=O)CN(c2ccc(C34CC5CC(CC(C5)C3)C4)cc2)S(C)(=O)=O)c1)S(C)(=O)=O
AC50 [3]: 7.58 µM (active) | EC50 [13]: 7.81 µM (active) | AC50 [4]: 31.2 µM (active) | AC50 [5]: 7.86 µM (active) | EC50 [14]: 1.6 µM (active)

Nc1n[nH]c(Sc2c([N+](=O)[O-])cc(C(F)(F)F)cc2[N+](=O)[O-])n1
IC50 [1]: > 66 µM (inactive) | IC50 [2]: > 66 µM (inactive)

CCCCN(c1nc2ccccc2nc1Cl)S(=O)(=O)c1ccc(C)cc1
AC50 [3]: 7.22 µM (active) | AC50 [4]: > 70 µM (inactive) | AC50 [5]: 30.7 µM (active)

COc1ccc(N2CCN(C(=O)CN3CCN(c4nc(-c5ccc(F)cc5)cs4)CC3)CC2)cc1
AC50 [3]: 1.81 µM (active) | AC50 [4]: 58 µM (active) | AC50 [5]: 1.16 µM (active)

Cc1ccc(/C(O)=C/c2nc3ccccc3oc2=O)cc1
EC50 [15]: > 300 µM (inconclusive) | IC50 (cells): 4.72 µM (active) | EC50 [8]: 11.4 µM (active) | EC50 [16]: > 300 µM (inconclusive)

COc1cccc(COC(=O)CCNC(=O)c2ccc(Br)cc2)c1OC
IC50 (cells): 15.4 µM (active)

COc1ccc(NC(=S)N/N=C2\CC(C)(C)Oc3ccc(OC)cc32)cc1
IC50 [1]: > 66 µM (inactive) | IC50 [2]: > 66 µM (inactive)

C[C@@H]1CN([C@H](C)CO)C(=O)c2cc(NS(=O)(=O)c3ccc(F)cc3)ccc2O[C@H]1CN(C)Cc1ccc(C(F)(F)F)cc1
AC50 [17]: 33.9 µM (active)

Sc1nnc(-c2ccccn2)n1/N=C/c1ccc(Br)s1
AC50 [6]: 10.5 µM (active)
